US12173026B2, “PRMT5 inhibitors” (Merck Sharp & Dohme LLC, priority 2018, dated 2024)

Tested on: symmetric dimethylation of arginine (SDMA) of PRMT5 substrates in MCF-7 cells
Assay: PRMT5 Cell Target Engagement (TE) Assay
Type: cell-based
Conditions: Homo sapiens, MCF7, 72 h; MCF-7 cells treated for 3 days; nuclear SDMA by high content imaging; top concentration 10000 nM
Method in brief: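 MCF-7 cells treated 3 days at 37 °C with 10-point 1:3 titration from 10000 nM top. Fixed cells stained with anti-SDMA antibody plus Alexa488 secondary and Hoechst; nuclear fluorescence quantified by high-content imaging versus DMSO wells. EC50 from 4-parameter fit of percent fluorescence vs log concentration.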

In order of rising EC50:
1. Cc1cc2ccc(OC[C@H]3C[C@@H](n4ccc5c(C)ncnc54)[C@H](O)[C@]3(C)O)cc2nc1N [Example 106, (1R,2S,3R,5R)-5-(((2-amino-3-methylquinolin-7-yl)oxy)methyl)-1-methyl-3-(4-methyl-7H-pyrrolo[2,3-d]pyrimidin-7-yl)cyclopentane-1,2-diol]  0.5 nM
2. Cc1cn([C@@H]2C[C@@H]3[C@H](Cc4ccc5cc(Br)c(N)nc5c4)CC[C@]3(O)[C@H]2O)c2ncnc(N)c12 [Example 40, (1S,2R,3aR,4S,6aR)-4-((2-amino-3-bromoquinolin-7-yl)methyl)-2-(4-amino-5-methyl-7H-pyrrolo[2,3-d]pyrimidin-7-yl)hexahydropentalene-1,6a(1H)-diol]  0.7 nM
3. Nc1nc2cc(C[C@@H]3CC[C@@]4(O)[C@@H]3O[C@@H](n3ccc5c(N)ncnc53)[C@@H]4O)ccc2cc1C(F)F [Example 137, (2R,3R,3aS,6S,6aR)-6-((2-amino-3-(difluoromethyl)quinolin-7-yl)methyl)-2-(4-amino-7H-pyrrolo[2,3-d]pyrimidin-7-yl)hexahydro-2H-cyclopenta[b]furan-3,3a-diol]  0.8 nM
4. Cc1ncnc2c1ccn2[C@@H]1C[C@@H]2[C@H](Cc3ccc4cc(F)c(N)nc4c3)CC[C@]2(O)[C@H]1O [Example 16, (1S,2R,3aR,4S,6aR)-4-((2-amino-fluoroquinolin-7-yl)methyl)-2-(4-methyl-7H-pyrrolo[2,3-d]pyrimidin-7-yl)hexahydropentalene-1,6a(1H)-diol]  0.9 nM
5. Cc1cn([C@@H]2O[C@@H]3[C@H](Cc4ccc5cc(Cl)c(N)nc5c4)CC[C@]3(O)[C@H]2O)c2ncnc(N)c12 [Example 66, (2R,3R,3aS,6S,6aR)-6-((2-amino-3-chloroquinolin-7-yl)methyl)-2-(4-amino-5-methyl-7H-pyrrolo[2,3-d]pyrimidin-7-yl)hexahydro-3aH-cyclopenta[b]furan-3,3a-diol]  0.9 nM
6. Nc1nc2cc(C[C@@H]3CC[C@@]4(O)[C@@H]3O[C@@H](n3cc(C(F)F)c5c(N)ncnc53)[C@@H]4O)ccc2cc1Br [Example 43, (2R,3R,3aS,6S,6aR)-6-[(2-amino-3-bromoquinolin-7-yl)methyl]-2-[4-amino-5-(difluoromethyl)-7H-pyrrolo[2,3-d]pyrimidin-7-yl]hexahydro-3aH-cyclopenta[b]furan-3,3a-diol]  1 nM
7. Cc1ncnc2c1ccn2[C@@H]1C[C@@H]2[C@H](Cc3ccc4cc(Br)c(N)nc4c3)CC[C@]2(O)[C@H]1O [Example 19, (1S,2R,3aR,4S,6aR)-4-((2-amino-3-bromoquinolin-7-yl)methyl)-2-(4-methyl-7H-pyrrolo[2,3-d]pyrimidin-7-yl)hexahydropentalene-1,6a(1H)-diol]  1.1 nM
8. CNc1ncnc2c1ccn2[C@@H]1C[C@@H]2[C@H](Cc3ccc4cc(Br)c(N)nc4c3)CC[C@]2(O)[C@H]1O [Example 97, (1S,2R,3aR,4S,6aR)-4-((2-amino-3-bromoquinolin-7-yl)methyl)-2-(4-(methylamino)-7H-pyrrolo[2,3-d]pyrimidin-7-yl)hexahydropentalene-1,6a(1H)-diol]  1.3 nM
9. Nc1nc2cc(C[C@@H]3CC[C@@]4(O)[C@@H]3O[C@@H](n3ccc5c(N)ncnc53)[C@@H]4O)cc(F)c2cc1F [Example 29, (2R,3R,3aS,6S,6aR)-6-[(2-amino-3,5-difluoroquinolin-7-yl)methyl]-2-(4-amino-7H-pyrrolo[2,3-d]pyrimidin-7-yl)hexahydro-3aH-cyclopenta[b]furan-3,3a-diol]  1.7 nM
10. Nc1nc2cc(C[C@@H]3CC[C@@]4(O)[C@@H]3O[C@@H](n3ccc5c(N)ncnc53)[C@@H]4O)ccc2cc1F [Example 124, (2R,3R,3aS,6S,6 aR)-6-((2-amino-3-fluoroquinolin-7-yl)methyl)-2-(4-amino-7H-pyrrolo[2,3-d]pyrimidin-7-yl)hexahydro-3aH-cyclopenta[b]furan-3,3a-diol]  2.3 nM
11. Cc1ncnc2c1ccn2[C@@H]1O[C@@H]2[C@H](Cc3ccc4cc(Cl)c(N)nc4c3)CC[C@]2(O)[C@H]1O [Example 122, (2R,3R,3aS,6S,6aR)-6-((2-amino-3-chloroquinolin-7-yl)methyl)-2-(4-methyl-7H-pyrrolo[2,3-d]pyrimidin-7-yl)hexahydro-3aH-cyclopenta[b]furan-3,3a-diol]  2.5 nM
12. C[C@]1(CCc2ccc3cc4c(nc3c2)NCC4)C[C@@H](n2ccc3c(N)ncnc32)[C@H](O)[C@@H]1O [Example 126, (1S,2R,3S,5R)-5-(4-amino-7H-pyrrolo[2,3-d]pyrimidin-7-yl)-3-(2-(2,3-dihydro-1H-pyrrolo[2,3-b]quinolin-7-yl)ethyl)-3-methylcyclopentane-1,2-diol]  2.9 nM
13. Cc1nc(N)c2ccn([C@@H]3O[C@@H]4[C@H](Cc5ccc6cc(Br)c(N)nc6c5)CC[C@]4(O)[C@H]3O)c2n1 [Example 61, (2R,3R,3aS,6S,6aR)-2-(4-amino-2-methyl-7H-pyrrolo[2,3-d]pyrimidin-7-yl)-6-((2-amino-3 bromoquinolin-7-yl)methyl)hexahydro-3aH-cyclopenta[b]furan-3,3a-diol]  3.2 nM
14. Nc1nc2cc(C[C@H]3[C@H]4O[C@@H](n5ccc6c(N)ncnc65)[C@H](O)[C@@]4(O)CC3(F)F)ccc2cc1F [Example 53, (2R,3R,3aS,6S,6aR)-6-[(2-amino-3-fluoroquinolin-7-yl)methyl]-2-(4-amino-7H-pyrrolo[2,3-d]pyrimidin-7-yl)-5,5-difluorohexahdro-3aH-cyclopenta[b]furan-3,3a-diol]  4.5 nM
15. Nc1nc2cc(O[C@H]3CC[C@@]4(O)[C@@H]3O[C@@H](n3ccc5c(N)ncnc53)[C@@H]4O)ccc2cc1F [Example 71, (2R,3R,3aS,6S,6aR)-6-((2-amino-3-fluoroquinolin-7-yl)oxy)-2-(4-amino-7H-pyrrolo[2,3-d]pyrimidin-7-yl)hexahydro-3aH-cyclopenta[b]furan-3,3a-diol]  9 nM
16. Cc1ncnc2c1ccn2[C@@H]1C[C@@H]2[C@@H](Cc3ccc4cc(F)c(N)nc4c3)CC[C@]2(O)[C@H]1O [Example 18, (1S,2R,3aR,4R,6aR)-4-((2-amino-3-fluoroquinolin-7-yl)methyl)-2-(4-methyl-7H-pyrrolo[2,3-d]pyrimidin-7-yl)hexahydropentalene-1,6a(1H)-diol]  10.6 nM
17. CNc1ncnc2c1c(F)cn2[C@@H]1O[C@@H]2[C@H](Cc3ccc4cc(Br)c(N)nc4c3)CC[C@]2(O)[C@H]1O [Example 96, (2R,3R,3aS,6S,6aR)-6-((2-amino-3-bromoquinolin-7-yl)methyl)-2-(5-fluoro-4-(methylamino)-7H-pyrrolo[2,3-d]pyrimidin-7-yl)hexahydro-3aH-cyclopenta[b]furan-3,3a-diol]  11.1 nM
18. Cc1ncnc2c1ccn2[C@@H]1O[C@@H]2[C@@H](Oc3ccc4cc(F)c(N)nc4c3)CC[C@]2(O)[C@H]1O [Example 86, (2R,3R,3aS,6S,6aR)-6-((2-amino-3-fluoroquinolin-7-yl)oxy)-2-(4-methyl-7H-pyrrolo[2,3-d]pyrimidin-7-yl)hexahydro-3aH-cyclopenta[b]furan-3,3a-diol]  37.5 nM
19. C[C@@]1(CCc2ccc3cc(F)c(N)nc3c2)C[C@@H](n2ccc3c(N)ncnc32)[C@H](O)[C@@H]1O [Example 116, (1S,2R,3R,5R)-3-(2-(2-amino-3-fluoroquinolin-7-yl)ethyl)-5-(4-amino-7H-pyrrolo[2,3-d]pyrimidin-7-yl)-3-methylcyclopentane-1,2-diol]  53.7 nM
20. Nc1nc2cc(CC3OC[C@@]4(O)C3C[C@@H](n3ccc5c(N)ncnc53)[C@@H]4O)ccc2cc1Br (some centres unmarked) [Example 132]  236 nM
